We go through 2 compounds from US20250166176A1, “METHODS AND MATERIALS FOR IMAGING ADIPOSE TISSUE” (CellSight Technologies Inc., priority 2022, published 2025).

Common to all, as to format: in vivo
The test system of data set [1] is BAT and marrow adipose tissue. The data set is described as follows: [18F]F-AraG PET imaging after chronic dosing with BRL37344. The settings on record: mice, 3 days+1 h prior to imaging.
The subject of data set [2] is iBAT. The data set is described as follows: [18F]F-AraG PET imaging of iBAT in mice with GBM tumors. The settings on record: one GBM mouse with highest neuroinflammation. The source says:
During our studies into the utility of ^18F-AraG in assessing intracranial T cell infiltration in glioblastoma multiforme (GBM) we made the unexpected and surprising discovery that ^18F-AraG can also image and/or assess the activation of adipose tissue (FIG. 2). Adipose, or fat, tissue (AT) was once considered an inert tissue that primarily existed to store lipids, and was not historically recognized as an important organ in the regulation and maintenance of health. With the rise of obesity and more rigorous research, AT is now recognized as a highly complex metabolic organ involved in a host of important physiological functions, including glucose homeostasis and a multitude of endocrine capabilities. […] The study of AT can provide useful insights in developing strategies to combat these highly prevalent metabolic diseases.
[^18F]F-AraG ability to track stimulated adipocytes allowed observation of activated iBAT in mice with bioluminescently-tagged GBM tumors. The activation occurred at different time points and varied in intensity.

Data set [3] deals with intrascapular BAT (iBAT). The data set is described as follows: [18F]F-AraG and FDG PET imaging of BAT in mice treated with BRL37344, insulin or vehicle.

Turning to `C[C@H](Cc1ccc(OCC(=O)O)cc1)NC[C@H](O)c1cccc(Cl)c1` [BRL37344], the “effect of chronic dosing on [18F]F-AraG signal (in words)” value in data set [1] was “increase in [^18F]F-AraG signal not only in the classical, intrascapular BAT. but also in lumbar spinal cord and proximal tibia”.

`Nc1nc2c(ncn2[C@@H]2O[C@H](CO)[C@@H](O)[C@@H]2[18F])c(=O)[nH]1` [[^18F]F-AraG, [18F]-F-arabinofuranosyl guanine]: the results for the “iBAT [18F]F-AraG signal” value in data set [2] (OnTx3) and in data set [2] (PreTx) were 14.92 % ID/g and 1.70 % ID/g, respectively. Besides, the “[18F]F-AraG uptake in iBAT” value was determined as 4.11±0.76 % ID/g in data set [3] (control animals) and 3.36±0.62 % ID/g in data set [3] (insulin-treated mice). Further, in data set [3] (mice, BRL37344 administered one hour prior to imaging), the “accumulation of [18F]F-AraG in intrascapular BAT (iBAT)” value is 10.98±1.64 % ID/g.
